Measurements reported in paper PMC2033546, “Effects of somatostatin analogue RC-160 and bombesin/gastrin-releasing peptide antagonists on the growth of human small-cell and non-small-cell lung carcinomas in nude mice” (British Journal of Cancer, 1994).
Bridges are numbered along the chain shown (N, C = ends). Where no end group is shown, it is not given here.

What was measured:
human SCLC cell line H69 = test: [3H]Thymidine incorporation assay in H69 cells; type: cell-based; conditions: 3 days; for [3H]Thymidine incorporation: Table V, mean s.e.
Text: (§1) Br. J. Cancer (1994). 70, 886 892 ? Macmillan Press Ltd.. […] Bombesin GRP antagonists. […] Lung carcinoma is the leading cause of cancer-related deaths in the western world. It is estimated that in 1992 there were approximately 168,000 new cases of lung cancer in the US and that about 146,000 deaths occurred from this disease (Boring et al., 1992). […] The growth factors such as bombesin/gastrin-releasing pep- tide (GRP), epidermal growth factor, (EGF), transforming growth factor a (TGF-x) and insulin-like growth factor I(IGF-I) appear to play a role in the proliferation and pro- gression of lung cancer (Cuttitta et al., 1985; Veale et al., 1987; Minuto et al., 1988; Siegfried & Owens, 1988; Macaulay et al., 1990; Tateishi et al., 1991; Damstrup et al., 1992; Sethi & Rozengurt, 1992; Rabiasz et al., 1992; Moody & Cuttitta, 1993). […] Tpi is 2,3,4,9-tetrahydro- Correspondence: A.V. Schally (151). VA Medical Center, 1601 Per- dido Street. New Orleans, LA 70146. USA. Received 1 March 1994; and in revised form 5 July 1994. Br. J. Cancer (1994), 70, 886-892 C Macmillan Press Ltd., 1994 PEPTIDE ANALOGUES IN LUNG CANCER 8U7 lH-pyrido [3,4bjindol-3-carboxylic acid, a conformationally constrained secondary amine derivate of tryptophan and Tac is thiazolidine-4-carboxylic acid. […] Animals Male athymic NCr nulmu nude mice, approximately 6 weeks old on arrival, were obtained from the NCI (Bethesda, MD, USA) and maintained under pathogen-limited conditions. Cell lines The human SCLC cell line NCI-H69, was obtained from the American Type Cell Culture (ATCC), Rockville, MD, USA and the non-SCLC cell line NCI-H157, from Dr H. Oie, NCI-Navy Medical Oncology Branch, Bethesda, MD, USA. These cell lines were cultured in RPMI-1640 medium supple- mented with 4 mM L-glutamine, 50 units ml-I penicilln G sodium, SOigml-' streptomycin sulphate, 0.125pgml-' amphotericin B and 10% fetal bovine serum at 3TC in a humidified 95% air/5% carbon dioxide atmosphere. CeLs were passaged weekly and routinely monitored for myco- plasma contamination using a detection kit (Boehringer- Mannheim, Mannheim, Germany). All culture media com- ponents were purchased from Gibco (Grand Island, NY, USA). Receptor assays Preparation of membranes for receptor studies was described previously (Halmos et al., 1993). Iodinated EGF and IGF-I were purchased from Amersham (Arlington Heights, IL, USA). Radioiodination of other peptides and receptor bind- ing of EGF, IGF-I, somatostatin and bombesin/GRP were performed as previously described (Srkalovic et al., 1989; Szepeshazi et al., 1992). Complete displacement assays on tumour membranes were done only once because of the shortage of tumour material. The LIGAND PC computerised curve-fitting programme of Munson and Rodbard (1980) was used to determine the types of receptor binding, dissociation constant (Kd) values, and the maximal binding capacity (BDj) of receptors. In order to determine the specificity of the binding sites for radiolabelled EGF, IGF-I, somatostatin and bombesin to lung cancer membranes, various structuraly related and unrelated peptides were tested for their ability to inhibit the binding of the tracers. Histological procedure The histological procedures were the same as described previously (Szepeshazi et al., 1991, 1992). The number of mitotic and apoptotic cells per 1,000 cells was determined, and the percentage area of necrosis in tumour sections was examined using the point-counting method (Szepeshazi et al., 1991, 1992), in which the crossing points of an ocular net that coincide with necrosis in various sections are counted. Radiommunoassays Serum levels of growth hormone were determined by double- antibody radioimmunoassay (RIA) using materials supplied by the National Hormone and Pituitary Program of the National Institute of Diabetes and Digestive and Kidney Diseases (NIDDK).

[1] = system: MIA PaCa-2 human pancreatic cancer cell line; conditions: ref Liebow et al., 1989; cited from earlier work
Text: (§2) Br. J. Cancer (1994). 70, 886 892 ? Macmillan Press Ltd..

IGF-I levels = conditions: patients with SCLC; ref Macauley et al. (1991); cited from earlier work
Text: as §2

[2] = Body weight of tumour-bearing nude mice; conditions: Table I, Experiment I (SCLC-H69), end of experiment; control 26.3 ? 2.3; means ? s.d.
Text: Br. J. Cancer (1994). 70, 886 892 ? Macmillan Press Ltd.. […] Bombesin GRP antagonists. […] Lung carcinoma is the leading cause of cancer-related deaths in the western world. It is estimated that in 1992 there were approximately 168,000 new cases of lung cancer in the US and that about 146,000 deaths occurred from this disease (Boring et al., 1992). […] CeLs were passaged weekly and routinely monitored for myco- plasma contamination using a detection kit (Boehringer- Mannheim, Mannheim, Germany). […] The number of mitotic and apoptotic cells per 1,000 cells was determined, and the percentage area of necrosis in tumour sections was examined using the point-counting method (Szepeshazi et al., 1991, 1992), in which the crossing points of an ocular net that coincide with necrosis in various sections are counted. Radiommunoassays Serum levels of growth hormone were determined by double- antibody radioimmunoassay (RIA) using materials supplied by the National Hormone and Pituitary Program of the National Institute of Diabetes and Digestive and Kidney Diseases (NIDDK).

[3] = system: Bombesin/GRP receptors in membranes of SCLC H69 tumours; test: Bombesin/GRP receptor binding on H69 tumour membranes after in vivo treatment; parameters: species or system human
Text: as §1, with “In order to determine the specificity of the binding sites for radiolabelled EGF, IGF-I, somatostatin and bombesin to lung cancer membranes, various structuraly related and unrelated peptides were tested for their ability to inhibit the binding of the tracers. Histological procedure The histological procedures were the same as described previously (Szepeshazi et al., 1991, 1992).” left out

[4] = system: EGF receptors in membranes of SCLC H69 tumours; test: EGF receptor binding on H69 tumour membranes after in vivo treatment; parameters: species or system human; conditions: Table IV, Experiment I (SCLC-H69); tumour membranes after in vivo treatment; control 278; ten-point displacement in triplicate tubes, done once
Text: as §1, with “In order to determine the specificity of the binding sites for radiolabelled EGF, IGF-I, somatostatin and bombesin to lung cancer membranes, various structuraly related and unrelated peptides were tested for their ability to inhibit the binding of the tracers. Histological procedure The histological procedures were the same as described previously (Szepeshazi et al., 1991, 1992).” left out

[5] = system: IGF-I receptors in membranes of SCLC H69 tumours; test: IGF-I receptor binding on H69 tumour membranes after in vivo treatment; parameters: species or system human; conditions: Table IV, Experiment I (SCLC-H69), control 294, done once
Text: as §1, with “Receptor assays Preparation of membranes for receptor studies was described previously (Halmos et al., 1993). Iodinated EGF and IGF-I were purchased from Amersham (Arlington Heights, IL, USA). Radioiodination of other peptides and receptor bind- ing of EGF, IGF-I, somatostatin and bombesin/GRP were performed as previously described (Srkalovic et al., 1989; Szepeshazi et al., 1992). Complete displacement assays on tumour membranes were done only once because of the shortage of tumour material. The LIGAND PC computerised curve-fitting programme of Munson and Rodbard (1980) was used to determine the types of receptor binding, dissociation constant (Kd) values, and the maximal binding capacity (BDj) of receptors. In order to determine the specificity of the binding sites for radiolabelled EGF, IGF-I, somatostatin and bombesin to lung cancer membranes, various structuraly related and unrelated peptides were tested for their ability to inhibit the binding of the tracers. Histological procedure The histological procedures were the same as described previously (Szepeshazi et al., 1991, 1992).” left out

[6] = Serum gastrin radioimmunoassay in nude mice; type: in vivo; conditions: Table III, Experiment I (SCLC H-69), after treatment; double-antibody RIA; control 130.0 ? 10.8; means ? s.e.; **P < 0.01 vs control
[7] = system: Somatostatin receptors in membranes of SCLC H69 tumours; test: Somatostatin receptor binding on H69 tumour membranes after in vivo treatment; parameters: species or system human; conditions: Table IV, Experiment I (SCLC-H69); tumour membranes after in vivo treatment; control 450; done once
Text: as §1, with “In order to determine the specificity of the binding sites for radiolabelled EGF, IGF-I, somatostatin and bombesin to lung cancer membranes, various structuraly related and unrelated peptides were tested for their ability to inhibit the binding of the tracers. Histological procedure The histological procedures were the same as described previously (Szepeshazi et al., 1991, 1992).” left out

[8] = system: human SCLC cell line NCI-H69; test: Growth of H69 SCLC xenografts in nude mice; type: in vivo, human (xenograft in male athymic nude mice)
Text: as §1

D-Trp23, D-Phe5, Leu27- GRP(14-27) [RC-3009]
[3H]thymidine incorporation into DNA of H69 cells (in words) (human SCLC cell line H69; RC-160 0.001 to 10.0 µg/ml, 5 days, RC-3005 or RC-3009 5.0 and 25.0 µg/ml): significantly suppressed
[3H]Thymidine incorporation (human SCLC cell line H69; 1.0 µg/ml): 98.4 0.8 per cent of control
[3H]Thymidine incorporation (human SCLC cell line H69; 5.0 µg/ml, *P<0.05 vs control): 92.7 2.0* per cent of control

somatostatin: native peptide somatostatin (AGCKNFFWKTFTSC; disulfide 3-14; ends not checked; UniProt P61278 103-116, looked up) [reference compound]
Effect on EGF-stimulated cell growth (in words) [1]: reversed the stimulatory effect of EGF
Effect on EGF-stimulated phosphorylation of the tyrosine kinase domain of the EGF receptors (in words) [1]: reversed the stimulatory effect of EGF

octreotide
IGF-I levels (in words) (IGF-I levels): reduced IGF-I levels

[Tpi6, Leu'3*(CH2N)Tpi'4 bombesin (6-16) [RC-3440]
Body weight [2]: 26.2 ± 1.3 g
Bombesin/GRP maximal binding capacity (Bmax) ([3]; Table IV, Experiment I (SCLC-H69), tumour membranes after in vivo treatment, control 420, done once): 255 fmol mg-'protein
Concentration of receptors for bombesin/GRP on H69 tumours (in words) ([3]; after in vivo treatment): markedly dereased
EGF maximal binding capacity (Bmax) [4]: 134 fmol mg' protein
IGF-I maximal binding capacity (Bmax) [5]: 255 fmol mg' protein
Serum gastrin [6]: 92.7 8.2 pg ml'
Somatostatin maximal binding capacity (Bmax) [7]: 501 fmol mg-'protein
Tumour volume, final ([8]; Table I, Experiment I (SCLC-H69), 5 weeks s.c. peritumoral, RC-160 100 µg/day, RC-3440, RC-3095, RC-3950-II 20 µg/day per animal, control 249.7 ? 182.3, means ? s.d., ten animals per group, *P<0.05 vs control): 74.1 mm³
Tumour weight ([8]; Table I, Experiment I (SCLC-H69), 5 weeks s.c. peritumoral, RC-160 100 µg/day, antagonists 20 µg/day per animal, control 0.27 ? 0.19, means ? s.d., *P<0.05 vs control): 0.076 ± 0.04* g
Tumour doubling time ([8]; Table I, Experiment I (SCLC-H69), 5 weeks, RC-160 100 µg/day, antagonists 20 µg/day per animal s.c., control 7.5): 12.1 days
Growth of H69 SCLC tumours (in words) ([8]; s.c. peritumorally, RC-160 100 µg, bombesin/GRP antagonists 20 µg per animal per day, 5 weeks): inhibited the growth of H69 SCLC tumours
